From PMC2637447 (Neuropharmacology, 2008)

Legend:
[1] = molecular target: GluK1 (Homo sapiens, UniProt P39086); assay: Ca2+ fluorescence assay, antagonism of L-glutamate; assay type: cell-based
[2] = molecular target: GluK3 (Homo sapiens, UniProt Q13003); assay: whole-cell voltage clamp, % inhibition at […] of […] glutamate currents; assay type: cell-based; conditions: read-out: % inhibition at 30 μM
Chain of GluK3 (Q13003 32-919): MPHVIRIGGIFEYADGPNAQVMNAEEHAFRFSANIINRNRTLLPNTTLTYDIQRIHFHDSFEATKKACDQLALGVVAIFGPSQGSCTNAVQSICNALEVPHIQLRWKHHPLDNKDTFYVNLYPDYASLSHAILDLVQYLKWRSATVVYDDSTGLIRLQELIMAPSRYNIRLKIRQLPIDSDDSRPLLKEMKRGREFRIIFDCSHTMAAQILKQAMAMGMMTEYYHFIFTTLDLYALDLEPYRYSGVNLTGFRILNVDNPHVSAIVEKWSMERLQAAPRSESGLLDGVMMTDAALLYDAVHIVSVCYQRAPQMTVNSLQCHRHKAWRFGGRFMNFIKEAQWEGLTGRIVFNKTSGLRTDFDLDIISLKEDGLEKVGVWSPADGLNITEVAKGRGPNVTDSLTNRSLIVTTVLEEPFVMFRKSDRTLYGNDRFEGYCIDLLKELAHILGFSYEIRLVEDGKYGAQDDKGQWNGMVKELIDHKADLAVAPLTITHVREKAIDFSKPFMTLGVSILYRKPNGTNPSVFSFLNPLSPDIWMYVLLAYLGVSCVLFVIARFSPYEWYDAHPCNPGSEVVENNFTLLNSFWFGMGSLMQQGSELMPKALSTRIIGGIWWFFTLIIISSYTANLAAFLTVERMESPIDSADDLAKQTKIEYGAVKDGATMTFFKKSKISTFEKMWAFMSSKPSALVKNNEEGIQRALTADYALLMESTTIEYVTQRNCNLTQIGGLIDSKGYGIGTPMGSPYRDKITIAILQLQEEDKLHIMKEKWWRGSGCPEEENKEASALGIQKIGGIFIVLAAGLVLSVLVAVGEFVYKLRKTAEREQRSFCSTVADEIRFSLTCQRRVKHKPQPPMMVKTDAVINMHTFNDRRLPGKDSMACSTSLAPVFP

Chain of GluK1 (P39086 31-918): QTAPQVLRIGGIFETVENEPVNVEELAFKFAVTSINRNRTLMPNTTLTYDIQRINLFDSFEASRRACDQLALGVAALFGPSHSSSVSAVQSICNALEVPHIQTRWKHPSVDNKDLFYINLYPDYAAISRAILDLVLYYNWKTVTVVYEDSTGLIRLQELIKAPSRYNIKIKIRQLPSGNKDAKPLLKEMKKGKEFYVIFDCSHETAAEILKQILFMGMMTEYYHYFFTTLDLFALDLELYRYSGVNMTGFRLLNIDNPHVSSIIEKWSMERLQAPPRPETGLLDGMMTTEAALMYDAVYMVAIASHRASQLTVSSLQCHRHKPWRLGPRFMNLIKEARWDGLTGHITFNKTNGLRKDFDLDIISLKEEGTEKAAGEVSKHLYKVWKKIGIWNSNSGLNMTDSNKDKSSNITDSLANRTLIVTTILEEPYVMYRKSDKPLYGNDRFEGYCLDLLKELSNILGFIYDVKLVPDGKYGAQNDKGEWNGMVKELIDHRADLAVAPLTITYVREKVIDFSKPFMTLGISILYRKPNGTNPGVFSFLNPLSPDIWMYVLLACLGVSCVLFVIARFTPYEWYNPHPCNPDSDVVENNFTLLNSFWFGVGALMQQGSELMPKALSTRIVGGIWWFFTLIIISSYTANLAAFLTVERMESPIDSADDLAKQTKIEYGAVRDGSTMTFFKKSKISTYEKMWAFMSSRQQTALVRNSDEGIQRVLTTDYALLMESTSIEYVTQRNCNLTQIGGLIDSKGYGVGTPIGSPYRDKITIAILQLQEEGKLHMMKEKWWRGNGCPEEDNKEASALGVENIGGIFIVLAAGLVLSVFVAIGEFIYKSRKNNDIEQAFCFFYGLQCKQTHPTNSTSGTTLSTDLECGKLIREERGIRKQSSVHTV

Compound | Kb [1] [nM] | inhibition at 30 µM [2] [%]
UBP304 | 110 ± 30 | 
Cc1cn(C[C@H](N)C(=O)O)c(=O)n(Cc2cc(-c3ccccc3)sc2C(=O)O)c1=O [ACET, (S)-1-(2-amino-2-carboxyethyl)-3-(2-carboxy-5-phenylthiophene-3-yl-methyl)-5-methylpyrimidine-2,4-dione] | 1.4 ± 0.2 | 30 ± 5
